The results in this text go back to patent US8017631B2, “Oxadiazole derivatives and their medical use” (Neurosearch A/S, priority 2005, dated 2011).

Series [1] deals with T1, human nicotinic acetylcholine receptor subtype α4β2 (Homo sapiens, UniProt P17787+P43681).
T1 construct: expressed in transfected cells; host or cells: human HEK cells
Briefly: Characterization of hα4β2 positive allosteric modulators using FLIPR. Format: cell-based. As for the experimental part: The ability is determined relative to a maximal nicotine response (normally 100 μM). The activity is determined as a standard assay using a fluorometric method in a Fluorescent Image Plate Reader (FLIPR) as described below in more detail.
Full concentration/response curves are generated and EC50 values are calculated based on peak values. EC50 values (Effective Concentration) represent the concentration of the test substance, at which the nicotine-induced EC20-30 response is positively modulated such that the size of the response equals 50% of a maximal nicotine control response. The maximal positively modulated response is determined relative to the reference (nicotine) response.

T1 sequence (P43681 29-627 limits assumed): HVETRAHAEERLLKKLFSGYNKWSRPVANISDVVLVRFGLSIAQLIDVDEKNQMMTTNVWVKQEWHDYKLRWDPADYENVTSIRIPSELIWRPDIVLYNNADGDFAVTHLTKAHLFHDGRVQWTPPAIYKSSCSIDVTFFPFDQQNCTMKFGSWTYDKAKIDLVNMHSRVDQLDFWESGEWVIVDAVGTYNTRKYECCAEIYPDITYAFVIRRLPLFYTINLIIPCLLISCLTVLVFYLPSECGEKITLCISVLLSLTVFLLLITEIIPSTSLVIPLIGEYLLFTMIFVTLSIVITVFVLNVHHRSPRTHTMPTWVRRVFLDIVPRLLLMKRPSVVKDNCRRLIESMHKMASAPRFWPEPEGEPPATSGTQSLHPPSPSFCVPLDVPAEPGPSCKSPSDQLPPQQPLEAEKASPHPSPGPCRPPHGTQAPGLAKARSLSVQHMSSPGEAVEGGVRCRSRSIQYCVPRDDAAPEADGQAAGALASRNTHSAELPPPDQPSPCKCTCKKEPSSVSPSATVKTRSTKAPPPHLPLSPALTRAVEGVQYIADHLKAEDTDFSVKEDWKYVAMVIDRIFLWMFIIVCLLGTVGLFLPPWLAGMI
T1 sequence (P17787 26-502): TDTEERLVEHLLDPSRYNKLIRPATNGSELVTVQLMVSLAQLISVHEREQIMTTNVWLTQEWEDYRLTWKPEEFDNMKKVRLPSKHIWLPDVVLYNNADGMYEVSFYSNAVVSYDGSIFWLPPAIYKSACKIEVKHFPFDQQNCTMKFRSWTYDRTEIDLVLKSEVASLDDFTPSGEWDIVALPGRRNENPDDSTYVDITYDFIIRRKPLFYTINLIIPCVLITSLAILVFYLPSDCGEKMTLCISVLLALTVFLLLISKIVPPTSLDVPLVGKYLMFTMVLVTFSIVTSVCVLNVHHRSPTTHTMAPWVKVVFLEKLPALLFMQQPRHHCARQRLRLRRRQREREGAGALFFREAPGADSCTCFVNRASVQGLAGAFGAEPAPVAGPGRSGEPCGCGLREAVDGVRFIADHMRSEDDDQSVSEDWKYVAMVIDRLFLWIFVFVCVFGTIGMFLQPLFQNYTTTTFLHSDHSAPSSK

Broadly, the melting point is the temperature, or range, at which the solid turns liquid. For `N#Cc1ccc(-c2nc(-c3cccnc3)no2)o1` [Compound 6.2, 5-(3-Pyridin-3-yl-[1,2,4]oxadiazol-5-yl)-furan-2-carbonitrile], the melting point lay in the range of 141 to 144 °C. By EC50 is commonly meant the midpoint of the concentration-response curve. A higher EC50 goes with lower potency in that assay. Turning to `O=[N+]([O-])c1ccc(-c2nc(-c3cccnc3)no2)o1` [Compound 1, 3-(5-(5-Nitro-furan-2-yl)-[1,2,4]oxadiazol-3-yl)-pyridine], the “Max. Response rel. to Nicotine” value in series [1] (maximal positively modulated response relative to maximal nicotine response (normally 100 μM), HEK cells expressing hα4β2) was determined as 97%. The molecule also came in with an EC50 in series [1] (positive modulation of sub-maximal nicotine (EC20-30) response, human HEK cells expressing hα4β2, peak values) of 6.8 µM.
